Laboratory results as given in patent publication US9573972B2, “Nurotoxic sterol glycosides” (priority 2008, dated 2017).
Marks after values point to notes of the source that are not given here.

Key:
male CD-1 mice = experiment: Open field monitoring, SG-fed mice; format: in vivo, mouse; details: SG-fed vs control
Excerpt: Five-month old male CD-1 mice (30.1-35.7 g, 7.5 cm-8.8 cm) were purchased from Charles River (Wilmington, Mass.). Adult mice were chosen to mimic the mean age of onset of ALS-PDC (Kurland, L. T. (1988a) Trends Neurosci. 11, 51-4; Kurland, L. T., et al. (1994) Amyotrophic lateral sclerosis-parkinsonism-dementia complex on Guam: epidemiologic and etiological perspectives. 109-131). Thirty mice for the SG study were randomly divided into 2 groups (14 control and 16 experimental animals). All animals were housed singly in a virus-free barrier facility in a room maintained at 22° C. under a 12 hour light/dark cycle. The mice were provided ad libitum access to food and water.
The synthetic SG was mixed with finely ground Purina Chow mouse pellets (Mouse Diet™, Purina) to create the experimental pellets with a SG content of 1000 μg per pellet. Dry materials were blended with a sterile silicon spatula. For every 5 g of standard feed, 2.5 mL of doubly-distilled water (dd)H2O was added and the dough was kneaded and round up into pellets. A single sterol glucoside containing pellet was placed in the feeding tray each morning before the addition of regular mouse chow (ad libitum). All experimental pellets were entirely consumed by the mice each day. Control mice were fed standard mouse chow pellets of identical weight with no additives. SG feeding was conducted daily for 15 weeks and mice were behaviorally monitored until sacrifice at 35 weeks (time point 1) or 52 weeks (time point 2).
Open field monitoring: Spontaneous activity in an open field is considered one of the most standardized general measures of motor function (Crawley, 2000). The open field test can also reveal stress response in animals (i.e. defensive burying or thigmotaxis) (Karl et al., Exp Toxicol Pathol., 2003, 55(1):69-83). Open field testing of each animal was conducted every two weeks. A single mouse was placed in one of four round open field arena/tubs (approximately 1 m diameter) to permit the testing of four animals per 5 minute trial. […] This in turn, increases the likelihood of detection of fear-based behavior (Crawley, 2000) and minimizes habituation of the animal to the open field (Crawley, 2000). Testing arenas were cleaned with 70% ethanol before the testing of each animal and with quatricide at the end of each testing session. Movements were recorded using a video camera mounted on the ceiling. Video clips were reviewed and were manually scored or automatically analysed on an automated video tracking software (Ethovision® 3.1, Noldus Information Technologies Inc., Leesburg, Va., USA). Scoring was done on videotaped sessions, rather than in-person at the time of testing to avoid the introduction of confounding variables by the presence of an observer in close proximity to the mice (Crawley, 2000).

Phosphorylated Junser73 = experiment: Anti-pJun immunofluorescence; format: in vivo, mouse
Method: Tissue-mounted slides were processed for fluorescence microscopy as follows: Sections were rinsed in coplin jars for 45 minutes at room temperature (RT) in three changes of PBS. Sections were then incubated at RT for 30 minutes in a blocking permeabilization solution made of 5% normal goat serum (NGS), 5% normal rabbit serum (NRS) or 5% BlokHen II (Ayes Labs, Inc., Tigard, Oreg.), 0.05% Triton X-100 and PBS. Subsequently, the blocking solution was tipped off and the slides were rinsed in PBS for 2 minutes. […]

For CC[C@H](/C=C/[C@@H](C)[C@H]1CC[C@H]2[C@@H]3CC=C4C[C@@H](O[C@@H]5O[C@H](CO)[C@@H](O)[C@H](O)[C@H]5O)CC[C@]4(C)[C@H]3CC[C@]12C)C(C)C [SG, Stigmasterol β-D-Glucopyranoside], the Total distance moved (male CD-1 mice; Time-point 1 (35 wk)) was “Total distance moved (ns)”, the “Total distance to zone border” value (male CD-1 mice; Time-point 1 (35 wk)) was “Total distance to zone border (ns)” and the Total turn angle (male CD-1 mice; Time-point 1 (35 wk)) was “Total turn angle (ns)”. The “Total distance to zone border” value (male CD-1 mice; Time-point 2 (52 wk)) was “Total distance to zone border* (*p < 0.05)”, the “Anti-pJun immunoreactive cells over time” value (Phosphorylated Junser73; SG-fed group over time (35 to 52 wk)) was “Anti-pJun immunoreactive cells (SG-fed group over time) (ns)” and the “Anti-pJun, change” value (Phosphorylated Junser73; SG-fed vs control, Time-point 1 (35 wk)) was “Anti-pJun: +199%*”. For the same compound, the Anti-pJun (Phosphorylated Junser73; SG-fed vs control, Time-point 2 (52 wk)) was “Anti-pJun (ns)”.
